Results: US20240299353A1, “COMPOSITIONS AND METHODS FOR TREATING […] 5-MEO-DMT” (Alvarius Pharmaceuticals Ltd., priority 2021, published 2024)
Where “and” joins values, the source holds several entries; their conditions need not be identical. Identical values can stand only once.

Test system: hippocampal proteins
Experiment: Hippocampal LC-MS/MS proteomics and PANTHER pathway overrepresentation
Assay type: in vivo, Male Wistar rats
Conditions: hippocampus
Method: These treatment groups were used for the molecular assessment of addiction-linked markers.
Due to incompatibilities between components of the lysis buffer in the High-Performance Liquid Chromatography (HPLC) mass spectrometer the samples were first precipitated in 100% (w/v) Trichloroacetic acid (TCA). 1 volume of TCA stock was added to 4 volumes of protein sample. The mixture was incubated for 10 mins at 4° C. before centrifugation at 14,000 RPM for 5 mins. The supernatant was discarded and the pellet was washed in acetone. The acetone was then discarded and the pellet was air-dried before resuspension in 6M urea (Sigma) made in 50 mM ammonium bicarbonate (ABC, Sigma). 100 mM dithiothreitol (DTT) was added to the sample for a final concentration of 5 mM and the sample was incubated while vortexing at 60° C. for 30 mins. Next, 200 mM iodoacetemide (IAA, Sigma) solution was added and the sample was incubated in the dark at room temperature for 30 mins. The sample was then diluted with 50 mM ABC to give a final concentration of ≤2M Urea before the addition of trypsin. 50 μl of reduced, alkylated sample was added to a vial of trypsin singles, proteomic grade (Sigma) and incubated at 37° C. overnight while vortexing. 1% acetic acid (AA) was added to the sample to stop the trypsination the following day. Sample clean-up was performed using Stage Tips for a 10 μl pipette with a 0.6 μl C18 resin (Merck) and clean up was carried out as follows; Tip was equilibrated (10 μl of 50% acetonitrile (ACN) in 0.1% trifluoroacetic acid (TFA) was aspirated into the tip and dispensed to waste x2, 10 μl of 0.1% TFA was aspirated and dispensed to waste x2), peptides were bound to resin and washed (10 μl of sample was aspirated and dispensed x5 cycles, 10 μl of 0.1% TFA was aspirated and dispensed to waste x2) before being eluted into a collecting tube containing 30 μl of 50% ACN in 0.1% TFA (aspirate and dispense the sample through Stage Tip x3). This process was repeated three times for each sample using the same Stage Tip and collection tube. Samples were dried in a vacuum centrifuge for 30 mins at 60° C. and resuspended in 30 μl of Buffer A (97% water, 2.5% ACN and 0.5% AA) and stored at −20° C.
Digested samples were run on a Thermo Scientific Q Exactive mass spectrometer connected to a Dionex Ultimate 3000 (RSLCnano) chromatography system. Tryptic peptides were resuspended in 0.1% formic acid. Each sample was loaded onto a fused silica emitter (75 μm ID, pulled using a laser puller (Sutter Instruments P2000)), packed with Recrocil Pur C18 (1.9 μm) reverse phase media and was separated by an increasing acetonitrile gradient over 47 mins at a flow rate of 250 nL/min. The mass spectrometer was operated in positive ion mode with a capillary temperature of 320° C., and with a potential of 2300V applied to the frit. All readings were acquired with the mass spectrometer operating in automatic data dependent switching mode. A high resolution (70,000) MS scan was performed using the Q Exactive to select the most intense ions prior to MS/MS analysis using Higher-energy collisional dissociation (HCD). To identify peptides and proteins the MS/MS spectra were searched against the rat UniProt database. The database searches were performed with carbamidomethylation (C) as a fixed modification and acetylation (protein N terminus) and oxidation (M) as variable modifications. Filtering by a false discovery rate (FDR) was applied for peptides and proteins (0.01). For the generation of label-free quantitative (LFQ) ion intensities for protein profiles, signals of corresponding peptides in different LCMS/MS runs were matched by MaxQuant.
The Perseus statistical software contained in the MaxQuant package was used to analyze ion intensities (LFQ Intensity). Protein identities were filtered to eliminate the identifications from the reverse database, only identified by site and common contaminants.

`COc1ccc2[nH]cc(CCN(C)C)c2c1` [5-MeO-DMT, 5-methoxy-N,N-dimethyltryptamine] was tested, and the “of the 118 5-MeO-DMT differentially expressed proteins, shared with the combination” value (10 mg/kg 5-MeO-DMT) was 45 proteins, the “pathways significantly overrepresented (PANTHER)” value (10 mg/kg 5-MeO-DMT) was 16 pathways and the top overrepresented pathways (10 mg/kg 5-MeO-DMT) was “altered protein translation and synthesis”. The “of the 120 5-MeO-DMT differentially expressed proteins, shared with the combination” value (20 mg/kg 5-MeO-DMT) was 57 proteins, the “pathways significantly overrepresented (PANTHER)” value (20 mg/kg 5-MeO-DMT) was 24 pathways and the top overrepresented pathways (20 mg/kg 5-MeO-DMT) was “regulation of synapse organisation, structure and activity as well as modulating chemical transmission”. The “differentially expressed proteins vs saline+vehicle” value (from here on “differentially … vs saline+vehicle”) (24 h, 10 mg/kg 5-MeO-DMT) was 118 proteins, the “differentially expressed proteins shared between the two concentrations” value (24 h, 10 mg/kg and 20 mg/kg 5-MeO-DMT alone) was 32 proteins and the “differentially … vs saline+vehicle” value (24 h, 20 mg/kg 5-MeO-DMT) was 120 proteins. For the same compound, the “differentially … vs saline+vehicle” value (24 h, cocaine+10 mg/kg 5-MeO-DMT, 10 mg/kg) was 541 proteins and 544 proteins, the “differentially … vs saline+vehicle” value (24 h, cocaine+20 mg/kg 5-MeO-DMT) was 221 proteins and the “of the 340 cocaine differentially expressed proteins, remaining in the combination” value (cocaine+10 mg/kg 5-MeO-DMT) was 245 proteins. The “pathways significantly overrepresented (PANTHER)” value (cocaine+10 mg/kg 5-MeO-DMT) was 309 pathways, the top overrepresented pathways (cocaine+10 mg/kg 5-MeO-DMT) was “NAD and NADH metabolism, positive regulation of lamellipodium assembly and modulation of synaptic signaling” and the “of the 340 cocaine differentially expressed proteins, remaining in the combination” value (cocaine+20 mg/kg 5-MeO-DMT) was 85 proteins. The “pathways significantly overrepresented (PANTHER)” value (cocaine+20 mg/kg 5-MeO-DMT) was 67 pathways, the top overrepresented pathways (cocaine+20 mg/kg 5-MeO-DMT) was “positive regulation of telomerase activity, negative regulation of apoptosis and regulation of synapse organization, structure and activity” and the “differentially expressed proteins shared between the combination groups” value (cocaine+10 and cocaine+20 mg/kg 5-MeO-DMT) was 153 proteins.

For `COC(=O)[C@H]1[C@@H](OC(=O)c2ccccc2)C[C@@H]2CC[C@H]1N2C.Cl` [cocaine, cocaine hydrochloride, reference compound], the “differentially … vs saline+vehicle” value (24 h, cocaine+vehicle, p<0.05, fold change ≥±20%) was 340 proteins, the “pathways significantly overrepresented (PANTHER)” value (cocaine group) was 157 pathways and the top overrepresented pathways (cocaine-experienced animals) was “regulation of metabolic processes, protein translation and synaptic signalling”.
